Experimental data reported in patent US9593084B2 (Parion Sciences, Inc., priority 2012, dated 2017).
Where two headings read alike, the source gives them in different places. Marks after values point to notes of the source that are not given here.

Tests used:
[1] = biological target: T1, epithelial sodium channel (Canis lupus familiaris, UniProt A0A8I3MKE6+A0A8I3Q679+Q95165); assay: Inhibition of short-circuit current (ISC) in airway epithelial monolayers in Ussing chambers; assay type: cell-based, canine
T1 construct: endogenous in cells; host or cells: primary canine bronchial epithelial cells cultured at air-liquid interface
T1 sequence (A0A8I3Q679 1-649): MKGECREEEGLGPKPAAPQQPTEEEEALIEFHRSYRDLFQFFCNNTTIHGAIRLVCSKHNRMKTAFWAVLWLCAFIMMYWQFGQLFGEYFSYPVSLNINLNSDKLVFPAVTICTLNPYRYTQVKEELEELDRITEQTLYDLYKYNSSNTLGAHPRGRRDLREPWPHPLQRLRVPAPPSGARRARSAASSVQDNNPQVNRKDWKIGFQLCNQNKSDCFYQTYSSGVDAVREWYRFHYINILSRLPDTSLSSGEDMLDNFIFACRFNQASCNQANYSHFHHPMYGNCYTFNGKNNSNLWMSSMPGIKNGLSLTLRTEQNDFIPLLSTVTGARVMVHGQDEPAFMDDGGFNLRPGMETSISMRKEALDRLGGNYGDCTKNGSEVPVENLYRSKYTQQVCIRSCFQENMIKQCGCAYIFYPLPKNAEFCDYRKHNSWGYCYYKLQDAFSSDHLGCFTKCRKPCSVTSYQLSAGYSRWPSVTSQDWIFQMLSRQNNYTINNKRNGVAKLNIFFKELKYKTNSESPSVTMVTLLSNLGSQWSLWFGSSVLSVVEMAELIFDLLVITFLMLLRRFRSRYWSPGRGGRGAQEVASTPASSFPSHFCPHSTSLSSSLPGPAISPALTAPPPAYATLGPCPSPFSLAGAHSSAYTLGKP
T1 sequence (Q95165 1-641): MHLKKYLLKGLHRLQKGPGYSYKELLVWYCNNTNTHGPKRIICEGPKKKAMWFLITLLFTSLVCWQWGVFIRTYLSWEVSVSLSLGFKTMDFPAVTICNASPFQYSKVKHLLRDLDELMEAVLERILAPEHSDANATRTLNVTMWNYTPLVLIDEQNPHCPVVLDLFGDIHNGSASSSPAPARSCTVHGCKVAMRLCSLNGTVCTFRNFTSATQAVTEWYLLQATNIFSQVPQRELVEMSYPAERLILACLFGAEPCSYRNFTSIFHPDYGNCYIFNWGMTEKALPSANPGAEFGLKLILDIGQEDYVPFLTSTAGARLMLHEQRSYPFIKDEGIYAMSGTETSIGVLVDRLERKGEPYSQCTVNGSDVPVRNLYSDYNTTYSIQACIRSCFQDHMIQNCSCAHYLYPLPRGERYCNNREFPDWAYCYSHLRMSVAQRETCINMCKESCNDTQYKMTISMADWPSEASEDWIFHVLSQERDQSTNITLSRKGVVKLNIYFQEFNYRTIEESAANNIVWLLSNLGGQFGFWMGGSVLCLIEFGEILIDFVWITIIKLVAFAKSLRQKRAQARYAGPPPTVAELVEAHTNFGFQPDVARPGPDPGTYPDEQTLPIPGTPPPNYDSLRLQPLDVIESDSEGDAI
T1 sequence (A0A8I3MKE6 1-646): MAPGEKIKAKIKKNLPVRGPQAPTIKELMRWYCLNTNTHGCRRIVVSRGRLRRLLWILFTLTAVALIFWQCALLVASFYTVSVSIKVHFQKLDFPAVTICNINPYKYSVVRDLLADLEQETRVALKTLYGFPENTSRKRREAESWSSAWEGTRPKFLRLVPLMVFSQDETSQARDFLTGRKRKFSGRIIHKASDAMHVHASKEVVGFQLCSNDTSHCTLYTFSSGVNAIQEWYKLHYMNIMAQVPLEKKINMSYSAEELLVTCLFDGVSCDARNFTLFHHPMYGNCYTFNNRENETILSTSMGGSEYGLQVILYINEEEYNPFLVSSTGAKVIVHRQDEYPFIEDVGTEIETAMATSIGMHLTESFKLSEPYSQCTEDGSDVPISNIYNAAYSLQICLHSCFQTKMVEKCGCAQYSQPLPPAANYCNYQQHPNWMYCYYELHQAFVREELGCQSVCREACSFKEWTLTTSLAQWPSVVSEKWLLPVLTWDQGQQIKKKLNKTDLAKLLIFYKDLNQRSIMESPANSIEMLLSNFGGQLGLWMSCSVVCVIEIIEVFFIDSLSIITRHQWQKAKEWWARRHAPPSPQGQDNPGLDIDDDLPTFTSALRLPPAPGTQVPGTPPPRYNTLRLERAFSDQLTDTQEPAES
Protocol: One assay used to assess mechanism of action and/or potency of the compounds of the present invention involves the determination of lumenal drug inhibition of airway epithelial sodium currents measured under short circuit current (ISC) using airway epithelial monolayers mounted in Using chambers. Cells obtained from freshly excised human, dog, sheep or rodent airways are seeded onto porous 0.4 micron Snapwelff Inserts (CoStar), cultured at air-liquid interface (ALI) conditions in hormonally defined media, and assayed for sodium transport activity (ISC) while bathed in Krebs Bicarbonate Ringer (KBR) in Using chambers. All test drug additions are to the lumenal bath with half-log dose addition protocols (from 1×10^−11 M to 3×10^−5 M), and the cumulative change in ISC (inhibition) recorded. All drugs are prepared in dimethyl sulfoxide as stock solutions at a concentration of 1×10^−2 M and stored at −20° C. […] After the maximal concentration ([…]) is administered, the lumenal bath is exchanged three times with fresh drug-free KBR solution, and the resultant ISC measured after each wash for approximately 5 minutes in duration. Reversibility is defined as the percent return to the baseline value for sodium current after the third wash. All data from the voltage clamps are collected via a computer interface and analyzed off-line.
Dose-effect relationships for all compounds are considered and analyzed by the Prism 3.0 program.

Sheep MCC = assay: Mucociliary clearance (MCC) studies in sheep; assay type: in vivo; details: sheep
Protocol: The animal model that has been used most often to measure changes in MCC is the sheep model. The effect of compounds for enhancing mucociliary clearance (MCC) can be measured using an in vivo model described by Sabater et al., Journal of Applied Physiology, 1999, pp. 2191-2196, incorporated herein by reference.
In these studies, adult sheep were restrained and nasally intubated with an endotracheal tube. Aerosolized test articles were administered over 10-15 minutes to sheep. Radiolabeled ^99mTc-sulfur colloid (TSC, 3.1 mg/mL; containing approximately 20 mCi) was then administered at a specified time four or eight hours after test article. The radiolabeled aerosol was administered through the endotracheal tube for about 5 minutes. The sheep were then extubated, and total radioactive counts in the lung were measured every 5 minutes for a 1-hour observation period. The rate of radiolabel clearance from the lung is representative of the MCC rate in the animal. The advantage of this system is that it closely simulates the human lung environment. The model also allows for the collection of simultaneous PK/PD information through plasma and urine sampling over the test period. There are also several techniques to measure the drug concentrations on the airway surface during the MCC measurements. These include the collection of exhaled breath condensates or a filter paper method to obtain ASL via bronchoscopy.
The ovine model described above was used to evaluate the in vivo effects (efficacy/durability) of aerosol-delivered test agent on MCC. Treatments consisting of either 4 mL of test agent or test agent in combination with HS were tested. To determine if combining HS with test agent enhanced MCC, HS was administered immediately following test agent administration. Test solutions were aerosolized using a Raindrop nebulizer at a flowrate of eight liters per minute and connected to a dosimetry system consisting of a solenoid valve and a source of compressed air (20 psi). The deposited dose of drug in sheep lungs after an aerosol administration using the Raindrop nebulizer is estimated to be 8-15% of the dose. Using a Raindrop nebulizer, radiolabeled TSC was administered over approximately 3 minutes either 4 or 8 hours after drug treatment to evaluate efficacy/durability. Radioactive counts were measured in a central region in the right lung at 5 min intervals for one hour with a gamma camera. Three methods of analysis were utilized, 1) initial rate of clearance (slope) over the first 30 min fitted using linear regression 2) area under the curve for % clearance over time over one hour, and 3) the maximum clearance obtained in one hour.

[2] = canine bronchial epithelial cells, short-circuit current, read-out: Potency of Sodium Channel Blockade IC50
[3] = aerosol, 0.24 nmol/kg (3 μM), MCC at 8 h post-dose

Structure (SMILES) | IC50 [1, 2] [nM] | other results
N=C(NCCCCc1ccc2cc(C[C@H](N)C(=O)Nc3ccc(CCCN(C[C@H](O)[C@@H](O)[C@H](O)[C@H](O)CO)C[C@H](O)[C@@H](O)[C@H](O)[C@H](O)CO)cc3)ccc2c1)NC(=O)c1nc(Cl)c(N)nc1N [Compound 94, 3,5-diamino-N—(N-(4-(6-((S)-2-amino-3-(4-(3-(bis((2S,3R,4R,5R)-2,3,4,5,6-pentahydroxyhexyl)amino)propyl)phenylamino)-3-oxopropyl)naphthalen-2-yl)butyl)carbamimidoyl)-6-chloropyrazine-2-carboxamide] | 21.2 | –
N=C(NCCCCc1ccc(C[C@H](N)C(=O)Nc2ccc(CCCNC[C@H](O)[C@@H](O)[C@H](O)[C@H](O)CO)cc2)c2ccccc12)NC(=O)c1nc(Cl)c(N)nc1N [Compound 38, 3,5-diamino-N—(N-(4-(4-((S)-2-amino-3-oxo-3-(4-(3-((2S,3R,4R,5R)-2,3,4,5,6-pentahydroxyhexylamino)propyl)phenylamino)propyl)naphthalen-1-yl)butyl)carbamimidoyl)-6-chloropyrazine-2-carboxamide] | 25.4 | –
CN(C)CCCc1ccc(NC(=O)[C@@H](N)Cc2ccc(CCCCNC(=N)NC(=O)c3nc(Cl)c(N)nc3N)c3ccccc23)cc1 [Compound 23, (S)-3,5-diamino-N—(N-(4-(4-(2-amino-3-(4-(3-(dimethylamino)propyl)phenylamino)-3-oxopropyl)naphthalen-1-yl)butyl)carbamimidoyl)-6-chloropyrazine-2-carboxamide] | 20.7 | –
CN(C)CCCCCCc1ccc(NC(=O)[C@@H](N)Cc2ccc(CCCCNC(=N)NC(=O)c3nc(Cl)c(N)nc3N)c3ccccc23)cc1 [Compound 43, (S)-3,5-diamino-N—(N-(4-(4-(2-amino-3-(4-(6-(dimethylamino)hexyl)phenylamino)-3-oxopropyl)naphthalen-1-yl)butyl)carbamimidoyl)-6-chloropyrazine-2-carboxamide] | 50.1 | –
N=C(NCCCCc1ccc(C[C@@H](N)C(=O)Nc2ccc(CCCN(C[C@H](O)[C@@H](O)[C@H](O)[C@H](O)CO)C[C@H](O)[C@@H](O)[C@H](O)[C@H](O)CO)cc2)c2ccccc12)NC(=O)c1nc(Cl)c(N)nc1N [Compound 152, 3,5-diamino-N—(N-(4-(4-((R)-2-amino-3-(4-(3-(bis((2S,3R,4R,5R)-2,3,4,5,6-pentahydroxyhexyl)amino)propyl)phenylamino)-3-oxopropyl)naphthalen-1-yl)butyl)carbamimidoyl)-6-chloropyrazine-2-carboxamide] | – | duration of action on MCC vs. vehicle (Sheep MCC; 8 hours post dose): enhanced duration action of MCC vs. vehicle; AUC (% Cl-h) (Sheep MCC; [3]): 17.4* (4) % Cl-h; Initial Slope (8.0-8.5 h) (Sheep MCC; [3]): 37.5* (4)
N=C(NCCCCc1ccc2cc(C[C@H](N)C(=O)O)ccc2c1)NC(=O)c1nc(Cl)c(N)nc1N [Compound 80, (S)-2-amino-3-(6-(4-(3-(3,5-diamino-6-chloropyrazine-2-carbonyl)guanidino)butyl)naphthalen-2-yl)propanoic acid] | 19.4 | –
NC(=NC(=O)c1nc(Cl)c(N)nc1N)NCCCCc1ccc(C[C@H](N)C(=O)Nc2ccc(CCCNC[C@H](O)[C@@H](O)[C@H](O)[C@H](O)CO)cc2)c2c1CCCC2 [Compound 131] | – | IC50 [1]: 6 nM

Further lines, with some results ahead:

IC50 [1, 2] [nM] | Structure (SMILES) | other results
8.6 | N=C(NCCCCc1ccc(C[C@H](N)C(=O)Nc2ccc(CCCN(C[C@H](O)[C@@H](O)[C@H](O)[C@H](O)CO)C[C@H](O)[C@@H](O)[C@H](O)[C@H](O)CO)cc2)c2c1CCCC2)NC(=O)c1nc(Cl)c(N)nc1N [Compound 127, 3,5-diamino-N—(N-(4-(4-((S)-2-amino-3-(4-(3-(bis((2S,3R,4R,5R)-2,3,4,5,6-pentahydroxyhexyl)amino)propyl)phenylamino)-3-oxopropyl)-5,6,7,8-tetrahydronaphthalen-1-yl)butyl)carbamimidoyl)-6-chloropyrazine-2-carboxamide] | –
5.2 | CN(C)CCCc1ccc(NC(=O)[C@@H](N)Cc2ccc(CCCCNC(=N)NC(=O)c3nc(Cl)c(N)nc3N)c3c2CCCC3)cc1 [Compound 135, (S)-3,5-diamino-N—(N-(4-(4-(2-amino-3-(4-(3-(dimethylamino)propyl)phenylamino)-3-oxopropyl)-5,6,7,8-tetrahydronaphthalen-1-yl)butyl)carbamimidoyl)-6-chloropyrazine-2-carboxamide] | –
10.6 | CCCCCCN(CCCCCCc1ccc(NC(=O)[C@@H](N)Cc2ccc(CCCCNC(=N)NC(=O)c3nc(Cl)c(N)nc3N)c3ccccc23)cc1)C[C@H](O)[C@@H](O)[C@H](O)[C@H](O)CO [Compound 58, 3,5-diamino-N—(N-(4-(4-((S)-2-amino-3-(4-(6-(hexyl((2S,3R,4R,5R)-2,3,4,5,6-pentahydroxyhexyl)amino)hexyl)phenylamino)-3-oxopropyl)naphthalen-1-yl)butyl)carbamimidoyl)-6-chloropyrazine-2-carboxamide] | –
